Measurements published in the supplement of paper PMC10307832.

Columns and labels:
Assay in all cases: relative viability (nuclei count vs DMSO), 5 days (fraction); higher = more cells survive
SGI-1776 + Lapatinib = compound: CN1CCC(CNc2ccc3ncc(-c4cccc(OC(F)(F)F)c4)n3n2)CC1 [SGI-1776] + CS(=O)(=O)CCNCc1ccc(-c2ccc3ncnc(Nc4ccc(OCc5cccc(F)c5)c(Cl)c4)c3c2)o1 [Lapatinib] (partner 2 µM)
Method in brief: (§1)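 Relative viability was taken as the ratio of nuclei in treated wells to nuclei in vehicle wells. Lung cancer cell lines in 1536-well plates received compounds by pin tool one day after seeding, either one drug alone or a fixed anchor-drug dose plus five library-drug doses (not always all listed) in √10 steps. Nuclei were counted on 4× images after 5 days of treatment, and values are medians of duplicate plates.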

Entinostat + Phenformin = compound: Nc1ccccc1NC(=O)c1ccc(CNC(=O)OCc2cccnc2)cc1 [Entinostat] + N=C(N)NC(=N)NCCc1ccccc1 [Phenformin] (partner 250 µM)
Method in brief: as §1

Entinostat + Olaparib = compound: Nc1ccccc1NC(=O)c1ccc(CNC(=O)OCc2cccnc2)cc1 [Entinostat] + O=C(c1cc(Cc2n[nH]c(=O)c3ccccc23)ccc1F)N1CCN(C(=O)C2CC2)CC1 [Olaparib] (partner 8 µM)
Method in brief: as §1

[1] = compound: C1COCCN1C2=NC(=NC3=C2OC4=C3C=CC=N4)C5=CC(=CC=C5)NC(=O)C6=CN=C(C=C6)N + N=C(N)NC(=N)NCCc1ccccc1 [Phenformin] (partner 250 µM)
Method in brief: as §1

Cell Line	relative viability (SGI-1776 + Lapatinib; first compound 0.08 µM)	relative viability (SGI-1776 + Lapatinib; first compound 0.8 µM)	relative viability (SGI-1776 + Lapatinib; first compound 2.53 µM)	relative viability (SGI-1776 + Lapatinib; first compound 8 µM)	relative viability (Entinostat + Phenformin; first compound 0.02 µM)	relative viability (Entinostat + Phenformin; first compound 0.06325 µM)	relative viability (Entinostat + Phenformin; first compound 0.2 µM)	relative viability (Entinostat + Phenformin; first compound 0.6325 µM)	relative viability (Entinostat + Phenformin; first compound 2 µM)	relative viability (Entinostat + Olaparib; first compound 0.02 µM)	relative viability (Entinostat + Olaparib; first compound 0.06325 µM)	relative viability (Entinostat + Olaparib; first compound 0.2 µM)	relative viability (Entinostat + Olaparib; first compound 0.6325 µM)	relative viability (Entinostat + Olaparib; first compound 2 µM)	relative viability ([1]; first compound 0.02 µM)	relative viability ([1]; first compound 0.06325 µM)	relative viability ([1]; first compound 0.2 µM)	relative viability ([1]; first compound 0.6325 µM)	relative viability ([1]; first compound 2 µM)
LOU-NH91	0.818	0.824	0.75	0.588	0.746	0.773	0.75	0.706	0.55	0.863	0.904	0.919	0.806	0.676	0.709	0.723	0.724	0.721	0.652
LU99A	1.03	1.16	1.07	0.902	0.783	0.891	0.722	0.609	0.545	0.236	0.264	0.274	0.198	0.164	0.845	0.876	0.78	0.371	0.255
LXF-289	0.945	0.941	0.893	0.895	0.538	0.554	0.532	0.414	0.354	1.07	0.978	0.875	0.714	0.523	0.523	0.536	0.541	0.49	0.383
NCI-H23	1.21	0.984	0.917	1.17	0.71	0.667	0.796	0.762	0.501	0.282	0.242	0.237	0.179	0.12	0.818	–	0.815	0.747	0.669
NCI-H322M	0.56	0.603	0.539	0.569	0.799	0.963	0.99	0.809	0.664	0.722	0.952	0.887	0.815	0.618	0.781	0.786	0.683	0.735	0.508
NCI-H358	0.434	0.469	0.352	0.292	0.335	0.546	0.506	0.245	0.108	0.574	0.649	0.593	0.342	0.172	–	0.36	0.269	0.248	0.169
NCI-H460	1.16	0.978	1.13	0.863	0.511	0.479	0.298	0.0601	0.0314	0.37	0.328	0.137	0.0676	0.0406	0.554	0.57	0.512	0.144	0.0234
NCI-H520	1.05	0.91	0.756	0.628	0.497	0.723	0.701	0.615	0.49	0.336	0.346	0.272	0.237	0.149	0.597	0.631	0.588	0.479	0.403
NCI-H596	1.08	1.06	0.906	0.825	0.752	0.74	0.823	0.734	0.554	0.748	0.662	0.667	0.558	0.405	0.768	0.916	0.754	0.598	0.61
NCI-H647	1.17	0.915	1.01	0.601	0.54	0.555	0.405	0.158	0.0748	0.522	0.333	0.426	0.0646	0.0559	0.574	0.768	0.466	0.519	0.195
NCI-H650	0.99	0.955	0.747	0.795	0.491	0.466	0.431	0.455	0.318	0.43	0.425	0.363	0.21	0.171	0.453	0.469	0.417	0.457	0.431
NCI-H661	0.509	0.533	0.646	0.439	0.281	0.266	0.303	0.269	0.192	0.696	0.721	0.641	0.567	0.339	0.268	0.3	0.263	0.248	0.206
NCI-H727	0.933	1.1	0.826	0.793	0.457	0.689	0.581	0.436	0.43	0.73	0.735	0.642	0.677	0.532	0.441	0.629	0.502	0.469	0.458
NCI-H838	0.96	1.22	0.942	0.564	0.706	0.852	0.677	0.426	0.198	0.819	0.79	0.759	0.452	0.201	0.514	0.687	0.485	0.414	0.198
NCI-H1355	0.915	0.989	1.01	0.799	0.48	0.439	0.502	0.368	0.332	0.669	0.698	0.647	0.535	0.356	0.449	0.491	0.461	0.433	0.434
